# Key:
# [1] = test system: several mammalian cell types; conditions: energy-independent manner; Zhao et al., J. Pharmacol Exp Ther., 304:425-432, 2003; cited from earlier work
# [2] = test system: Monocytes from Normal Dogs; experiment: Oxygen consumption rate (XF analyzer) in isolated monocytes incubated with peptide, normal dogs; type: cell-based, dog; conditions: for MAXresp (maximal respiration) / Proton Leak / SRC (spare respiratory capacity): monocytes from normal dogs
# Method: (§1) Peripheral blood samples were obtained from 6 normal dogs and 6 dogs with coronary microembolizations-induced heart failure (LV ejection fraction ˜30%). Monocytes were isolated from the peripheral blood samples via sequential Ficoll and Percoll density gradients. Monocyte viability, assayed using Trypan blue exclusion, was ˜70%. An XFc/XF96 analyzer (Scahorsc Bioscience) was used to measure oxygen consumption rates (OCR) in monocytes in the presence and absence of 1 μM oligomycin, 0.5 μM FCCP, or 1 μM each rotenone and antimycin. Mitochondrial proton leak, maximal respiration (MAXresp) and spare respiratory capacity (SRC) were measured in the presence and absence of 0.1, 1.0 and 10 μM concentrations of D-Arg-2′6′Dmt-Lys-Phe-NH2. Results were expressed in pmols OCR/min/μg protein.
# [3] = test system: Monocytes from Heart Failure Dogs; experiment: Oxygen consumption rate (XF analyzer) in isolated monocytes incubated with peptide, heart failure dogs; type: cell-based, dog; conditions: for MAXresp (maximal respiration) / Proton Leak / SRC (spare respiratory capacity): monocytes from heart failure dogs
# Method: as §1
# [4] = heart failure dogs, 0.1, 1.0 and 10 μM
substance,measurement,setting,value
"2′,6′-Dmt-D-Arg-Phe-Lys-NH2",penetration of the plasma membrane,[1],readily penetrates the plasma membrane
D-Arg-2′6′Dmt-Lys-Phe-NH2,MAXresp (maximal respiration),[2]; peptide concentration 0.1 μM,11.1 pmols OCR/min/μg protein
same,Proton Leak,[2]; peptide concentration 0.1 μM,0.54 pmols OCR/min/μg protein
same,SRC (spare respiratory capacity),[2]; peptide concentration 0.1 μM,6.35 pmols OCR/min/μg protein
same,MAXresp (maximal respiration),[2]; peptide concentration 1.0 μM,12.1 pmols OCR/min/μg protein
same,Proton Leak,[2]; peptide concentration 1.0 μM,0.47 pmols OCR/min/μg protein
same,SRC (spare respiratory capacity),[2]; peptide concentration 1.0 μM,7.04 pmols OCR/min/μg protein
same,MAXresp (maximal respiration),[2]; peptide concentration 10 μM,12.1 pmols OCR/min/μg protein
same,Proton Leak,[2]; peptide concentration 10 μM,0.48 pmols OCR/min/μg protein
same,SRC (spare respiratory capacity),[2]; peptide concentration 10 μM,7.04 pmols OCR/min/μg protein
same,effect on measures of monocyte mitochondrial function,"[2]; normal dogs, incubation with 0.1, 1.0 and 10 μM",no effect
same,change in MAXresp with concentration,[3]; [4],dose-dependent increase
same,change in SRC with concentration,[3]; [4],dose-dependent increase
same,change in proton leak with concentration,[3]; [4],dose-dependent decrease
same,monocyte mitochondrial function,"[3]; heart failure dogs, after treatment with 0.1, 1.0 and 10 μM",nearly normalized/restored
same,MAXresp (maximal respiration),[3]; peptide concentration 0.1 μM,6.3 pmols OCR/min/μg protein
same,Proton Leak,[3]; peptide concentration 0.1 μM,1.55 pmols OCR/min/μg protein
same,SRC (spare respiratory capacity),[3]; peptide concentration 0.1 μM,1.95 pmols OCR/min/μg protein
same,MAXresp (maximal respiration),[3]; peptide concentration 1.0 μM,8.3 pmols OCR/min/μg protein
same,Proton Leak,[3]; peptide concentration 1.0 μM,0.94 pmols OCR/min/μg protein
same,SRC (spare respiratory capacity),[3]; peptide concentration 1.0 μM,3.64 pmols OCR/min/μg protein
same,MAXresp (maximal respiration),[3]; peptide concentration 10 μM,9.4 pmols OCR/min/μg protein
same,Proton Leak,[3]; peptide concentration 10 μM,0.77 pmols OCR/min/μg protein
same,SRC (spare respiratory capacity),[3]; peptide concentration 10 μM,4.51 pmols OCR/min/μg protein

# Reference: patent US11366104B2, “Methods of identifying and monitoring mitochondrial dysfunction using monocyte screening” (Stealth BioTherapeutics Inc., priority 2014, dated 2022)
